# Experimental data as given in US8273775B2, “Non-steroidal brassinosteroid mimetic” (priority 2006, dated 2012).
# Tested on: gene expression in Col-0 seedling shoots
# Assay: Microarray analysis (ATH1 Affymetrix) after BL or abrasin treatment
# Format: in vivo, Arabidopsis
# Conditions: 120 min
# Description: FIG. 14: Clustering of gene expression profiles by QT-clust analysis. Clusters illustrating the major patterns of the data sets. Points: BIK-30: 30 μM abrasin 30 min; BL-30: 1 μM brassinolide 30 min; DMSO-30: control DMSO 30 min; BIK-120: 30 μM abrasin 120 min; BL-120: 1 μM brassinolide 120 min; DMSO-120: control DMSO 120 min.
# Col-0 seeds were germinated vertically on ½ MS medium for 7 days under 16 h light/8 h dark cycles. The seedlings were overlaid with liquid ½ MS medium containing 1 μM brassinolide (BL, Fuji Chemical Industries, Ltd., Toyama, Japan), 30 μM abrasin (BIK, ChemBridge Corporation) and DMSO and treated for 30 and 120 min. The shoot parts were collected for RNA isolation. All sampling points were performed in three independent experiments. RNA was extracted using RNeasy kit (Qiagene). […] total RNA per array was used to hybridise the ATH1 Affymetrix Arabidopsis arrays according to standard procedure. The overrepresentation analyses were performed using BiNGO software (Maere et al., 2005).
# We performed a microarray analysis using the Arabidopsis whole genome chip (Affymetix) to determine whether abrasin activated the expression of BR-inducible genes at transcriptional level. Wild-type Col-0 seedlings were exposed to 1 μM BL, 30 μM ABRASIN and DMSO (mock-treatment) for two time points (30 min and 120 min) and the shoot parts were collected for RNA isolation. The analysis of the variance of the normalized gene expression data took in account the variability parameters affecting the expression level: type of hormone treatment, duration of treatment and the interaction between these two.
smiles,measurement,setting,value
"O=C(O)CCC(=O)Nc1ccc(Br)cn1 [abrasin, 4-[(5-bromo-2-pyridinyl)amino]-4-oxobutanoic acid]",Fold-change AT4G16780 homeobox-leucine zipper protein 4 (HAT4)/HD-ZIP protein,,0.42
same,Fold-change AT4G17250 expressed protein,,3.32
same,Fold-change AT4G17460 homeobox-leucine zipper protein 1 (HAT1)/HD-ZIP protein 1,,0.11
same,Fold-change AT4G21510 F-box family protein,,2.54
same,Fold-change AT4G23030 MATE efflux protein-related,,5.25
same,Fold-change AT4G23070 rhomboid family protein,,3.80
same,Fold-change AT4G23810 WRKY family transcription factor,,1.00
same,"Fold-change AT4G24160 hydrolase, alpha/beta fold family protein",,2.29
same,Fold-change AT4G25620 hydroxyproline-rich glycoprotein family protein,,0.49
same,Fold-change AT4G25780 pathogenesis-related protein,,0.18
same,Fold-change AT4G27970 C4-dicarboxylate transporter/malic acid transport family protein,,3.04
same,Fold-change AT4G28240 wound-responsive protein-related,,0.33
same,"Fold-change AT4G28490 leucine-rich repeat transmembrane protein kinase, putative",,2.30
same,Fold-change AT4G28703 expressed protein,,6.14
same,Fold-change AT4G28780 GDSL-motif lipase/hydrolase family protein,,1.26
same,Fold-change AT4G29070 expressed protein,,0.50
same,Fold-change AT4G30080 transcriptional factor B3 family protein,,0.41
same,Fold-change AT4G31020 expressed protein,,5.81
same,Fold-change AT4G32280 auxin-responsive AUX/IAA family protein (IAA29),,0.13
same,Fold-change AT4G33050 calmodulin-binding family protein,,1.58
same,Fold-change AT4G33700 CBS domain-containing protein,,0.38
same,Fold-change AT4G34610 homeodomain-containing protein,,0.41
same,Fold-change AT4G36110 auxin-responsive protein,,4.62
same,Fold-change AT4G36780 brassinosteroid signalling positive regulator-related,,0.03
same,Fold-change AT4G37240 expressed protein,,1.45
same,Fold-change AT4G37290 expressed protein,,2.45
same,Fold-change AT4G37590 phototropic-responsive NPH3 family protein,,0.43
same,Fold-change AT4G38840 auxin-responsive protein (SAUR14),,1.95
same,Fold-change AT4G38850 auxin-responsive protein (SAUR-AC1),,2.22
same,Fold-change AT4G38860 auxin-responsive protein (SAUR16),,2.27
same,Fold-change AT4G39400 brassinosteroid insensitive 1 (BRI1),,0.46
same,Fold-change AT5G02020 expressed protein,,2.29
same,Fold-change AT5G05690 cytochrome P450 90A1 (CYP90A1) (CYP90) (CPD),,0.29
same,Fold-change AT5G07690 myb family transcription factor (MYB29),,0.27
same,Fold-change AT5G08130 basic helix-loop-helix (bHLH) family protein (BIM2),,0.37
same,Fold-change AT5G12050 expressed protein,,0.27
same,Fold-change AT5G13180 no apical meristem (NAM) family protein,,0.39
same,Fold-change AT5G13740 sugar transporter family protein,,0.23
same,Fold-change AT5G14730 expressed protein,,0.53
same,Fold-change AT5G16200 50S ribosomal protein-related,,0.10
same,Fold-change AT5G16980 NADP-dependent oxidoreductase,,3.07
same,Fold-change AT5G18750 DNAJ heat shock N-terminal domain-containing protein,,1.26
same,Fold-change AT5G19200 short-chain dehydrogenase/reductase (SDR) family protein,,1.11
same,Fold-change AT5G19340 expressed protein,,0.23
same,Fold-change AT5G24030 C4-dicarboxylate transporter/malic acid transport family protein,,1.66
same,Fold-change AT5G24660 expressed protein,,3.61
same,Fold-change AT5G25240 expressed protein,,2.16
same,Fold-change AT5G25930 leucine-rich repeat family protein,,1.38
same,Fold-change AT5G27350 sugar-porter family protein 1 (SFP1),,1.56
same,Fold-change AT5G27670 histone H2A,,0.41
same,Fold-change AT5G38310 expressed protein,,1.88
same,"Fold-change AT5G38990; AT5G39000 [AT5G38990, protein kinase family protein",,2.08
same,Fold-change AT5G39050 transferase family protein,,1.83
same,Fold-change AT5G39610 no apical meristem (NAM) family protein,,0.35
same,Fold-change AT5G39970 expressed protein,,2.66
same,Fold-change AT5G42830 transferase family protein,,2.74
same,Fold-change AT5G47370 homeobox-leucine zipper protein 2 (HAT2),,0.43
same,Fold-change AT5G48070 putative xyloglucan endotransglycosylase/hydrolase,,3.63
same,Fold-change AT5G48540 33 kDa secretory protein-related,,2.03
same,Fold-change AT5G51550 phosphate-responsive 1 family protein,,0.41
same,"Fold-change AT5G54490 calcium-binding EF-hand protein, putative",,3.06
same,Fold-change AT5G54860 integral membrane transporter family protein,,2.01
same,Fold-change AT5G55970 zinc finger (C3HC4-type RING finger) family protein,,2.56
same,Fold-change AT5G56980 expressed protein,,0.22
same,Fold-change AT5G57190 phosphatidylserine decarboxylase,,1.58
same,Fold-change AT5G57780 expressed protein,,0.13
same,Fold-change AT5G59080 expressed protein,,0.40
same,Fold-change AT5G60200 Dof-type zinc finger domain-containing protein,,3.85
same,Fold-change AT5G60270 lectin protein kinase family protein,,2.56
same,Fold-change AT5G60630 expressed protein,,2.20
same,Fold-change AT5G61600 encodes a member of the ERF (ethylene response factor),,2.04
same,Fold-change AT5G62360 invertase/pectin methylesterase inhibitor family protein,,0.25
same,Fold-change AT5G65310 homeobox-leucine zipper protein 5 (HB-5)/HD-ZIP transcription factor 5,,0.20
same,Fold-change AT5G66420 expressed protein,,0.42
same,Fold-change AT5G66590 allergen V5/Tpx-1-related family protein,,0.31
same,Fold-change AT5G67450 zinc finger (C2H2 type) protein 1 (AZF1),,1.82
same,Fold-change of gene AT4G16140 (proline-rich family protein),"245479_at, Cluster 6",1.51
same,Fold-change of gene AT4G15260 (UDP-glucoronosyl/UDP-glucosyl transferase family protein),"245543_at, Cluster 7",1.52
same,"Fold-change of gene AT5G09440 (phosphate-responsive protein, putative)","245885_at, Cluster 5",0.13
same,Fold-change of gene AT1G77380 (amino acid carrier),"246389_at, Cluster 10",0.99
same,Fold-change of gene AT5G15740 (expressed protein),"246516_at, Cluster 5",0.49
same,Fold-change of gene AT5G65300 (expressed protein),"247177_at, Cluster 5",0.25
same,Fold-change of gene AT5G64890 (expressed protein),"247205_at, Cluster 10",2.18
same,Fold-change of gene AT5G63790 (no apical meristem (NAM) family protein),"247351_at, Cluster 9",0.69
same,Fold-change of gene AT5G62630 (expressed protein),"247444_at, Cluster 7",2.28
same,Fold-change of gene AT5G60850 (Dof-type zinc finger domain-containing protein),"247601_at, Cluster 10",0.64
same,Fold-change of gene AT5G59510 (expressed protein),"247704_at, Cluster 9",0.60
same,Fold-change of gene AT5G58660 (oxidoreductase. 2OG-Fe(II) oxygenase family protein),"247774_at, Cluster 5",2.15
same,Fold-change of gene AT5G54120 (expressed protein),"248190_at, Cluster 5",0.38
same,Fold-change of gene AT5G54130 (calcium-binding EF hand family protein),"248191_at, Cluster 5",0.31
same,Fold-change of gene AT5G52900 (expressed protein),"248282_at, Cluster 6",0.96
same,Fold-change of gene AT5G49100 (expressed protein),"248646_at, Cluster 9",0.62
same,Fold-change of gene AT5G18060 (auxin-responsive protein),"250012_x_at, Cluster 6",0.46
same,Fold-change of gene AT5G09800 (U-box domain-containing protein),"250493_at, Cluster 9",0.80
same,Fold-change of gene AT5G08565 (expressed protein),"250537_at, Cluster 8",0.41
same,Fold-change of gene AT5G03670 (expressed protein),"250907_at, Cluster 5",0.32
same,Fold-change of gene AT5G01740 (expressed protein),"251072_at, Cluster 5",0.34
same,Fold-change of gene AT3G63380 (calcium-transporting ATPase),"251176_at, Cluster 10",0.11
same,Fold-change of gene AT3G60690 (auxin-responsive family protein),"251342_at, Cluster 9",0.29
same,Fold-change of gene AT3G45610 (Dof-type zinc finger domain),"252586_at, Cluster 10",2.56
same,Fold-change of gene AT3G44610 (protein kinase family protein),"252646_at, Cluster 5",0.38
same,Fold-change of gene AT4G34760 (auxin-responsive family protein),"253255_at, Cluster 6",1.61
same,Fold-change of gene AT4G34138 (UDP-glucoronosyl/UDP-glucosyl transferase family protein),"253281_at, Cluster 7",3.16
same,Fold-change of gene AT4G31910 (transferase family protein),"253483_at, Cluster 5",1.60
same,Fold-change of gene AT4G30410 (expressed protein),"253617_at, Cluster 5",0.45
same,Fold-change of gene AT4G30450 (glycine-rich protein),"253629_at, Cluster 5",0.39
same,Fold-change of gene AT4G26200 (1-aminocyclopropane-1-carboxylate synthase),"253999_at, Cluster 9",0.24
same,Fold-change of gene AT4G03400 (auxin-responsive GH3 family protein),"255403_at, Cluster 6",0.77
same,Fold-change of gene AT4G02700 (sulfate transporter),"255443_at, Cluster 7",2.16
same,Fold-change of gene AT1G22190 (AP2 domain-containing transcription factor),"255926_at, Cluster 8",0.50
same,Fold-change of gene AT1G66140 (zinc finger (C2H2 type) family protein),"256528_at, Cluster 6",0.61
same,Fold-change of gene AT3G25655 (expressed protein),"256762_at, Cluster 8",0.15
same,"Fold-change of gene AT3G21420 (oxidoreductase, 2OG-Fe(II) oxygenase family protein)","256818_at, Cluster 7",2.39
same,Fold-change of gene AT3G18280 (protease inhibitor/seed storage/lipid transfer protein),"257066_at, Cluster 5",0.39
same,Fold-change of gene AT1G29440 (auxin-responsive family protein),"257506_at, Cluster 6",0.47
same,"Fold-change of gene AT3G29200 (chorismate mutase, chloroplast (CM1))","257746_at, Cluster 5",0.49
same,Fold-change of gene AT1G13260 (DNA-binding protein RAV1 (RAV1)),"259364_at, Cluster 8",0.46
same,Fold-change of gene AT1G29500 (auxin-responsive protein),"259773_at, Cluster 6",0.61
same,Fold-change of gene AT1G29510 (auxin-responsive protein),"259783_at, Cluster 6",0.50
same,Fold-change of gene AT1G29450 (auxin-responsive protein),"259784_at, Cluster 6",0.61
same,Fold-change of gene AT1G29460 (auxin-responsive protein),"259787_at, Cluster 6",0.44
same,"Fold-change of gene AT1G76690; AT1G76680 ([AT1G76690, 12-oxophytodienoate reductase (OPR2))","259875_s_at, Cluster 7",6.14
same,Fold-change of gene AT1G76620 (expressed protein),"259985_at, Cluster 8",0.28
same,Fold-change of gene AT1G63720 (expressed protein),"260243_at, Cluster 10",0.16
same,Fold-change of gene AT1G48100 (glycoside hydrolase family 28 protein),"260727_at, Cluster 8",0.38
same,Fold-change of gene AT1G12200 (flavin-containing monooxygenase family protein),"261023_at, Cluster 7",2.20
same,Fold-change of gene AT1G12845 (expressed protein),"261203_at, Cluster 6",2.71
same,Fold-change of gene AT1G15550 (gibberellin 3-beta-dioxygenase),"261768_at, Cluster 6",1.17
same,Fold-change of gene AT1G80840 (WRKY family transcription factor),"261892_at, Cluster 9",0.20
same,Fold-change of gene AT1G80080 (leucine-rich repeat family protein),"262040_at, Cluster 6",2.07
same,Fold-change of gene AT1G80130 (expressed protein),"262050_at, Cluster 8",0.18
same,Fold-change of gene AT1G21680 (expressed protein),"262505_at, Cluster 10",2.01
same,Fold-change of gene AT1G34245 (expressed protein),"262543_at, Cluster 6",5.18
same,Fold-change of gene AT1G78460 (SOUL heme-binding family protein),"263126_at, Cluster 7",2.50
same,"Fold-change of gene AT1G78820; AT1G78830 ([AT1G78820, curculin-like (mannose-binding) lectin family protein)","264279_s_at, Cluster 7",1.84
same,Fold-change of gene AT2G42380 (bZIP transcription factor family protein),"265877_at, Cluster 6",0.80
same,Fold-change of gene AT2G45080 (cyclin family protein),"266124_at, Cluster 8",0.10
